Results from patent US20210323981A1, “FREE AMINO COMPOUNDS FOR THE TREATMENT AND PROPHYLAXIS OF BACTERIAL INFECTION” (Hoffmann-La Roche Inc., priority 2018, published 2021).

Key:
Assay type in all cases: cell-based
S. aureus (ATCC29213) = assay: 50% growth inhibitory concentration (IC50) determination assay, S. aureus; settings: Staphylococcus aureus, growth inhibition, Iso-Sensitest broth, OD 600 nm over 16 h, <0.098 μM = detection limit
Experimental: (§1) The in vitro antimicrobial activity of the compounds against S. aureus (ATCC29213), K. pneumoniae (ATCC10031), and A. baumannii (ATCC17978), was determined according to the following procedure: The assay used a 10-points Iso-Sensitest broth medium to measure quantitatively the in vitro activity of the compounds against S. aureus ATCC29213, K. pneumoniae ATCC 10031, and A. baumannii ATCC17978. Stock compounds in DMSO were serially two-fold diluted (range from 50 to 0.097 μM final concentration) in 384 wells microtiter plates and inoculated with 49 μL the bacterial suspension in Iso-Sensitest broth medium to have a final cell concentration of ˜5×10^5 CFU/mL in a final volume/well of 50 μL/well. Microtiter plates were incubated at 35±2° C. Bacterial cell growth was determined with the measurement of optical density at k=600 nm each 20 minutes over a time course of 16 h. Growth inhibition was calculated during the logarithmic growth of the bacterial cells with determination of the concentration inhibiting 50% (IC50) of the growth.

[1] = tested on: K. pneumoniae (ATCC10031); assay: 50% growth inhibitory concentration (IC50) determination assay, K. pneumoniae; settings: Klebsiella pneumoniae, growth inhibition, Iso-Sensitest broth, OD 600 nm over 16 h, <0.098 μM = detection limit
Experimental: as §1

A. baumannii (ATCC17978) = assay: 50% growth inhibitory concentration (IC50) determination assay, A. baumannii; settings: Acinetobacter baumannii, growth inhibition, Iso-Sensitest broth, OD 600 nm over 16 h, <0.098 = detection limit
Experimental: as §1

SMILES | IC50 (S. aureus (ATCC29213)) | IC50 [1] | IC50 (A. baumannii (ATCC17978))
CNc1cc(F)c(F)c2c1[nH]c1ncc(-c3cnc4c(c3)c(=O)c(C(=O)O)cn4C)c(N3C[C@H]4CCC[C@@]4(N)C3)c12 (stereo in doubt) [Example 1.12, trans-6-(5,6-Difluoro-8-(methylamino)-4-[3a-amino-1,3,4,5,6,6a-hexahydrocyclopenta[c]pyrrol-2-yl]-9H-pyrido[2,3-b]indol-3-yl)-1-methyl-4-oxo-1,8-naphthyridine-3-carboxylic acid] | 0.448 µM | < 0.098 µM | 0.889 µM
CNc1cc(F)c(F)c2c1[nH]c1ncc(-c3cnc4c(c3)c(=O)c(C(=O)O)cn4C)c(N3CCCC3CN)c12 (stereo not drawn) [Example 1.09, 6-[4-[2-(Aminomethyl)pyrrolidin-1-yl]-5,6-difluoro-8-(methylamino)-9H-pyrido[2,3-b]indol-3-yl]-1-methyl-4-oxo-1,8-naphthyridine-3-carboxylic acid] | 0.513 µM | 0.25 µM | 3.72 µM
CNc1cc(F)c(F)c2c1[nH]c1ncc(-c3cnc4c(c3)c(=O)c(C(=O)O)cn4C)c(N3C[C@@H]4[C@@H](N)[C@@H]4C3)c12 [Example 1.08, 6-[5,6-Difluoro-8-(methylamino)-4-[rel-(1S,5R)-6-amino-3-azabicyclo[3.1.0]hexan-3-yl]-9H-pyrido[2,3-b]indol-3-yl]-1-methyl-4-oxo-1,8-naphthyridine-3-carboxylic acid] | 0.314 µM | < 0.098 µM | 0.654 µM

The next compounds have a lower IC50 (S. aureus (ATCC29213)) than those just listed; values first:

IC50 (S. aureus (ATCC29213)) | IC50 [1] | IC50 (A. baumannii (ATCC17978)) | SMILES
< 0.098 µM | < 0.098 µM | 0.155 µM | CNc1cc(F)c(F)c2c1[nH]c1ncc(-c3cnc4c(c3)c(=O)c(C(=O)O)cn4C)c(N3CCC4(C[C@@H]4N)C3)c12 (mixture of isomers) [Example 2.01, Trans-6-[4-(2-amino-5-azaspiro[2.4]heptan-5-yl)-5,6-difluoro-8-(methylamino)-9H-pyrido[2,3-b]indol-3-yl]-1-methyl-4-oxo-1,8-naphthyridine-3-carboxylic acid]
< 0.098 µM | < 0.098 µM | 0.0553 µM | CNc1cc(F)c(Cl)c2c1[nH]c1ncc(-c3cnc4c(c3)c(=O)c(C(=O)O)cn4C)c(N3CC[C@@]4(C[C@@H]4N)C3)c12 [Example 4.03, 6-[4-[(2S,3R)-2-amino-5-azaspiro[2.4]heptan-5-yl]-5-chloro-6-fluoro-8-(methylamino)-9H-pyrido[2,3-b]indol-3-yl]-1-methyl-4-oxo-1,8-naphthyridine-3-carboxylic acid]
< 0.098 µM | < 0.098 µM | 0.175 µM | CNc1cc(F)c(F)c2c1[nH]c1ncc(-c3cnc4c(c3)c(=O)c(C(=O)O)cn4C)c(N3CC[C@]4(C[C@@H]4N)C3)c12 [Example 3.04, 6-[4-[(2S,3S)-2-Amino-5-azaspiro[2.4]heptan-5-yl]-5,6-difluoro-8-(methylamino)-9H-pyrido[2,3-b]indol-3-yl]-1-methyl-4-oxo-1,8-naphthyridine-3-carboxylic acid]
